Measured values from patent US20060069132A1, “Azolecarboxamide herbicides” (priority 2004, published 2006).

Tests used:
[1] = system: Canada horseweed; experiment: Test E pre-/postemergence herbicide test; assay type: in vivo, Erigeron Canadensis
Excerpt: (§1) Seeds of plant species selected from bipinnate beggarticks (Bidens bipinnata L.), hairy beggarticks (Bidens radiata Thuill.), bermudagrass (Cynodon dactylon (L.) Pers.), Surinam grass (Urochloa decumbens (Staph) R. D. Webster, previously named Brachiaria decumbens Stapf), large crabgrass (Digitaria sanguinalis (L.) Scop.), green foxtail (Setaria viridis (L.) P. Beauv.), goosegrass (Eleusine indica (L.) Gaertn.), johnsongrass (Sorghum halepense (L.) Pers.), kochia (Kochia scoparia (L.) Schrad.), pitted morningglory (Ipomoea lacunosa L.), purple nutsedge (Cyperus rotundus L.), common ragweed (Ambrosia elatior L.), mustard (Brassica nigra (L.) W. D. J. Koch), guineagrass (Panicum maximum Jacq.), dallisgrass (Paspalum dilatatum Poir.), barnyardgrass (Echinochloa crus-galli (L). P. Beauv.), southern sandbur (Cenchrus echinatus L.), common sowthistle (Sonchus oleraceous L.), prickly sida (Sida spinosa L.), Italian ryegrass (Lolium multiflorum Lam.), common purslane (Portulaca oleracea L.), broadleaf signalgrass (Brachiaria platyphylla (Griseb.) Nash), common groundsel (Senecio vulgaris L.), common chickweed (Stellaria media (L.) Vill/Cyr.), tropical spiderwort (Commelina benghalensis L.), annual bluegrass (Poa annua L.), downy bromegrass (Bromus tectorum L.), itchgrass (Rottboellia cochinchinensis (L.) L.f.), quackgrass (Elytrigia repens (L.) Nevski), Canada horseweed (Erigeron Canadensis L.), field bindweed (Convolvulus arvensis L.), spotted spurge (Euphorbia maculata L.), common mallow (Malva sylvestris (=s silvestris) L.), and Russian thistle (Salsola kali L. ssp. Ruthenica (Iljin) Soo) were planted and treated preemergence with test chemicals formulated in a non-phytotoxic solvent mixture which included a surfactant.
(§2) At the same time, plants selected from these weed species were treated with postemergence applications of some of the test chemicals formulated in the same manner. Plants ranged in height from 2 to 18 cm (1- to 4-leaf stage) for postemergence treatments. Treated plants and controls were maintained in a greenhouse for 12 to 14 days, after which time all species were compared to controls and visually evaluated. Plant response ratings, summarized in Table E, are based on a scale of 0 to 100 where 0 is no effect and 100 is complete control. A dash (-) response means no test result.

[2] = system: green foxtail; experiment: Test E pre-/postemergence herbicide test; assay type: in vivo, Setaria viridis
Excerpt: as §1, §2

[3] = system: quackgrass; experiment: Test E pre-/postemergence herbicide test; assay type: in vivo, Elytrigia repens
Excerpt: as §1, §2

[4] = system: field bindweed; experiment: Test E pre-/postemergence herbicide test; assay type: in vivo, Convolvulus arvensis
Excerpt: as §1, §2

[5] = system: broadleaf signalgrass; experiment: Test E pre-/postemergence herbicide test; assay type: in vivo, Brachiaria platyphylla
Excerpt: as §1, §2

[6] = system: prickly sida; experiment: Test E pre-/postemergence herbicide test; assay type: in vivo, Sida spinosa
Excerpt: as §1, §2

[7] = system: windgrass; experiment: Test C postemergence herbicide test; assay type: in vivo, Apera spica-venti
In short: (§3)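 After a postemergence application at 1 to 4 leaves (plants 2–18 cm high), or at 2 leaves for barnyardgrass in flooded paddy, plants stayed in the greenhouse for 12 to 14 days. Damage was then judged visually relative to control plants, with 100 indicating complete control.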

[8] = system: green foxtail; experiment: Test C postemergence herbicide test; assay type: in vivo, Setaria viridis
In short: as §3

[9] = system: winter barley; experiment: Test C postemergence herbicide test; assay type: in vivo, Hordeum vulgare
In short: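 Scoring by eye, 12–14 days post-treatment, greenhouse-held plants vs. controls; 0 no effect, 100 complete control. Sprayed at 1–4 leaves (2–18 cm); paddy barnyardgrass at 2 leaves, flooded.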

[10] = system: Italian ryegrass; experiment: Test C postemergence herbicide test; assay type: in vivo, Lolium multiflorum
In short: as §3

[11] = system: wild oat; experiment: Test C postemergence herbicide test; assay type: in vivo, Avenafatua
In short: as §3

[12] = system: downy bromegrass; experiment: Test C postemergence herbicide test; assay type: in vivo, Bromus tectorum
In short: as §3

[13] = system: canarygrass; experiment: Test C postemergence herbicide test; assay type: in vivo, Phalaris minor
In short: as §3

[14] = system: wheat; experiment: Test C postemergence herbicide test; assay type: in vivo, Triticum aestivum
In short: as §3

[15] = Postemergence, 500 g ai/ha, scale 0 to 100
[16] = Postemergence, 250 g ai/ha, scale 0 to 100
[17] = Preemergence, 62 g ai/ha, scale 0 to 100
[18] = Preemergence, 125 g ai/ha, scale 0 (no effect) to 100 (complete control)
[19] = Preemergence, 250 g ai/ha, scale 0 (no effect) to 100 (complete control)
[20] = Preemergence, 500 g ai/ha, scale 0 (no effect) to 100 (complete control)
[21] = postemergence, 125 g ai/ha, scale 0 to 100
[22] = postemergence, 62 g ai/ha, scale 0 to 100
[23] = Preemergence, 125 g ai/ha, scale 0 to 100
[24] = Postemergence, 500 g ai/ha, scale 0 to 100, 0 no effect, 100 complete control
[25] = Postemergence, 250 g ai/ha, scale 0 to 100, 0 no effect, 100 complete control

## CCn1nc(C(C)(C)C)cc1C(=O)Nc1cc(C(=O)N(C)C)ccc1F [Compound 6, N-[5-[(dimethylamino)carbonyl]-2-fluorophenyl]-3-(1,1-dimethylethyl)-1-ethyl-1H-pyrazole-5-carboxamide]
[1]; [15]
  Plant response rating, Horseweed: 100
[1]; [16]
  Plant response rating, Horseweed: 100
[1]; [17]
  Plant response rating, Horseweed: 100
[1]; [18]
  Plant response rating, Horseweed: 100
[1]; [19]
  Plant response rating, Horseweed: 100
[1]; [20]
  Plant response rating, Horseweed: 100
[1]; [21]
  Plant response rating, Horseweed: 100
[1]; [22]
  Plant response rating, Horseweed: 75
[2]; [15]
  Plant response rating, Foxtail, Green: 98
[2]; [16]
  Plant response rating, Foxtail, Green: 98
[2]; [17]
  Plant response rating, Foxtail, Green: 95
[2]; [18]
  Plant response rating, Foxtail, Green: 95
[2]; [20]
  Plant response rating, Foxtail, Green: 100
[2]; [21]
  Plant response rating, Foxtail, Green: 90
[2]; [22]
  Plant response rating, Foxtail, Green: 80
[3]; [15]
  Plant response rating, Quackgrass: 98
[3]; [16]
  Plant response rating, Quackgrass: 95
[3]; [17]
  Plant response rating, Quackgrass: 95
[3]; [18]
  Plant response rating, Quackgrass: 100
[3]; [20]
  Plant response rating, Quackgrass: 100
[3]; [21]
  Plant response rating, Quackgrass: 90
[3]; [22]
  Plant response rating, Quackgrass: 80
[4]; [15]
  Plant response rating, Bindweed, Field: 100
[4]; [16]
  Plant response rating, Bindweed, Field: 100
[4]; [17]
  Plant response rating, Bindweed, Field: 30
[4]; [18]
  Plant response rating, Bindweed, Field: 60
[4]; [20]
  Plant response rating, Bindweed, Field: 100
[4]; [21]
  Plant response rating, Bindweed, Field: 95
[4]; [22]
  Plant response rating, Bindweed, Field: 10
[5]; [15]
  Plant response rating, Signalgrass: 98
[5]; [16]
  Plant response rating, Signalgrass: 95
[5]; [17]
  Plant response rating, Signalgrass: 75
[5]; [18]
  Plant response rating, Signalgrass: 75
[5]; [20]
  Plant response rating, Signalgrass: 95
[5]; [21]
  Plant response rating, Signalgrass: 90
[5]; [22]
  Plant response rating, Signalgrass: 35

## CCNC(=O)c1ccnc(NC(=O)c2cc(C(C)(C)C)nn2CC)c1 [Compound 152]
[2]; [15]
  Plant response rating, Foxtail, Green: 85
[2]; [16]
  Plant response rating, Foxtail, Green: 85
[2]; [17]
  Plant response rating, Foxtail, Green: 20
[2]; [23]
  Plant response rating, Foxtail, Green: 70
[2]; [19]
  Plant response rating, Foxtail, Green: 85
[2]; [20]
  Plant response rating, Foxtail, Green: 100
[2]; [21]
  Plant response rating, Foxtail, Green: 40
[3]; [15]
  Plant response rating, Quackgrass: 80
[3]; [16]
  Plant response rating, Quackgrass: 80
[3]; [17]
  Plant response rating, Quackgrass: 10
[3]; [23]
  Plant response rating, Quackgrass: 20
[3]; [19]
  Plant response rating, Quackgrass: 50
[3]; [20]
  Plant response rating, Quackgrass: 60
[3]; [21]
  Plant response rating, Quackgrass: 70
[4]; [15]
  Plant response rating, Bindweed, Field: 50
[4]; [16]
  Plant response rating, Bindweed, Field: 30
[4]; [17]
  Plant response rating, Bindweed, Field: 10
[4]; [23]
  Plant response rating, Bindweed, Field: 20
[4]; [19]
  Plant response rating, Bindweed, Field: 60
[4]; [20]
  Plant response rating, Bindweed, Field: 90
[4]; [21]
  Plant response rating, Bindweed, Field: 30
[6]; [15]
  Plant response rating, Prickly Sida: 85
[6]; [16]
  Plant response rating, Prickly Sida: 60
[6]; [17]
  Plant response rating, Prickly Sida: 20
[6]; [23]
  Plant response rating, Prickly Sida: 20
[6]; [19]
  Plant response rating, Prickly Sida: 60
[6]; [20]
  Plant response rating, Prickly Sida: 95
[5]; [15]
  Plant response rating, Signalgrass: 70
[5]; [16]
  Plant response rating, Signalgrass: 60
[5]; [17]
  Plant response rating, Signalgrass: 10
[5]; [23]
  Plant response rating, Signalgrass: 40
[5]; [19]
  Plant response rating, Signalgrass: 70
[5]; [20]
  Plant response rating, Signalgrass: 80
[5]; [21]
  Plant response rating, Signalgrass: 20

## CCc1nn(C(C)(C)CC)nc1C(=O)Nc1cccc(C(=O)N(C)C)c1 [Compound 372]
[1]; [17]
  Plant response rating, Horseweed: 80
[1]; [23]
  Plant response rating, Horseweed: 80
[1]; [19]
  Plant response rating, Horseweed: 95
[1]; [20]
  Plant response rating, Horseweed: 100
[2]; [17]
  Plant response rating, Foxtail, Green: 10
[2]; [23]
  Plant response rating, Foxtail, Green: 50
[2]; [19]
  Plant response rating, Foxtail, Green: 60
[2]; [20]
  Plant response rating, Foxtail, Green: 70
[3]; [17]
  Plant response rating, Quackgrass: 30
[3]; [23]
  Plant response rating, Quackgrass: 60
[3]; [19]
  Plant response rating, Quackgrass: 95
[3]; [20]
  Plant response rating, Quackgrass: 95
[4]; [17]
  Plant response rating, Bindweed, Field: 10
[4]; [23]
  Plant response rating, Bindweed, Field: 10
[4]; [19]
  Plant response rating, Bindweed, Field: 50
[4]; [20]
  Plant response rating, Bindweed, Field: 60
[6]; [17]
  Plant response rating, Prickly Sida: 20
[6]; [19]
  Plant response rating, Prickly Sida: 95
[6]; [20]
  Plant response rating, Prickly Sida: 95
[5]; [17]
  Plant response rating, Signalgrass: 0
[5]; [23]
  Plant response rating, Signalgrass: 10
[5]; [19]
  Plant response rating, Signalgrass: 40
[5]; [20]
  Plant response rating, Signalgrass: 60

## Cc1nn(C(C)(C)C)nc1C(=O)Nc1cccc(C(=O)N(C)C)c1 [Compound 391]
[1]; [17]
  Plant response rating, Horseweed: 80
[1]; [23]
  Plant response rating, Horseweed: 95
[1]; [19]
  Plant response rating, Horseweed: 100
[1]; [20]
  Plant response rating, Horseweed: 100
[2]; [17]
  Plant response rating, Foxtail, Green: 60
[2]; [23]
  Plant response rating, Foxtail, Green: 80
[2]; [19]
  Plant response rating, Foxtail, Green: 95
[2]; [20]
  Plant response rating, Foxtail, Green: 100
[7]; [24]
  Plant response rating, Windgrass: 70
[7]; [21]
  Plant response rating, Windgrass: 65
[7]; [22]
  Plant response rating, Windgrass: 60
[8]; [25]
  Plant response rating, Foxtail, Green: 60
[8]; [24]
  Plant response rating, Foxtail, Green: 65
[8]; [21]
  Plant response rating, Foxtail, Green: 55
[8]; [22]
  Plant response rating, Foxtail, Green: 55
[3]; [17]
  Plant response rating, Quackgrass: 40
[3]; [23]
  Plant response rating, Quackgrass: 90
[3]; [19]
  Plant response rating, Quackgrass: 95
[3]; [20]
  Plant response rating, Quackgrass: 95
[9]; [15]
  Barley, Winter plant response rating: 30
[9]; [25]
  Plant response rating, Barley, Winter: 30
[9]; postemergence, 125 g ai/ha, scale 0 to 100 (0 no effect, 100 complete control)
  Plant response rating, Barley, Winter: 10
[9]; postemergence, 62 g ai/ha, scale 0 to 100 (0 no effect, 100 complete control)
  Plant response rating, Barley, Winter: 10
[4]; [17]
  Plant response rating, Bindweed, Field: 20
[4]; [23]
  Plant response rating, Bindweed, Field: 90
[4]; [19]
  Plant response rating, Bindweed, Field: 90
[4]; [20]
  Plant response rating, Bindweed, Field: 95
[10]; [24]
  Plant response rating, Ryegrass, Italian: 65
[10]; [21]
  Plant response rating, Ryegrass, Italian: 40
[10]; [22]
  Plant response rating, Ryegrass, Italian: 35
[11]; [24]
  Plant response rating, Oat, Wild: 65
[11]; [21]
  Plant response rating, Oat, Wild: 40
[11]; [22]
  Plant response rating, Oat, Wild: 30
[12]; [25]
  Plant response rating, Bromegrass, Downy: 55
[12]; [24]
  Plant response rating, Bromegrass, Downy: 65
[12]; [21]
  Plant response rating, Bromegrass, Downy: 45
[12]; [22]
  Plant response rating, Bromegrass, Downy: 45
[6]; [17]
  Plant response rating, Prickly Sida: 50
[6]; [23]
  Plant response rating, Prickly Sida: 100
[6]; [19]
  Plant response rating, Prickly Sida: 100
[6]; [20]
  Plant response rating, Prickly Sida: 100
[5]; [17]
  Plant response rating, Signalgrass: 40
[5]; [23]
  Plant response rating, Signalgrass: 70
[5]; [19]
  Plant response rating, Signalgrass: 90
[5]; [20]
  Plant response rating, Signalgrass: 90
[13]; [25]
  Plant response rating, Canarygrass: 60
[13]; [24]
  Plant response rating, Canarygrass: 65
[13]; [21]
  Plant response rating, Canarygrass: 40
[13]; [22]
  Plant response rating, Canarygrass: 40
[14]; [24]
  Plant response rating, Wheat: 35
[14]; [21]
  Plant response rating, Wheat: 20
[14]; [22]
  Plant response rating, Wheat: 0
